# How the values were obtained:
# [1] = system: ER- and Golgi-resident class I α-mannosidases; conditions: relative to DMJ; cited from earlier work
# 2G12 [2] = assay: 2G12 binding ELISA of self glycoproteins CD48 and RPTPmu expressed in HEK293T cells with kifunensine; conditions: glycoproteins expressed in HEK293T cells with 5 μM kifunensine, FIG. 4
# Procedure: The aim of this study is to generate ‘self’ glycoproteins bearing oligomannose glycans which bind a 2G12 antibody and consequently display antigenic cross-reactivity with the HIV gp120. Two target glycoproteins, CD48 and Receptor Protein Tyrosine Phosphates mu (RPTPmu) were expressed in HEK293T cells in the presence of the mannosidase inhibitor kifunensine at 5 μM concentration. To verify that the mannosidase inhibitor was effective in producing glycoprotein containing oligomannose glycans, the glycans were released by digestion with protein N-glycanase F (PNGase F) and were then analysed by high-performance liquid chromatography (HPLC) and matrix assisted laser desorption/ionisation mass spectrometry (MALDI-MS).
# The resulting glycoproteins containing oligomannose-type N-linked glycans were tested for 2G12 binding by ELISA (FIG. 4). Particularly, 15.6 μg of CD48, 2 μg, 1 μg and 0.4 μg of RPTPmu were plated and 1 μg of non-kifunensine treated IgG was plated as a negative control.
# monoclonal antibody 2G12 = assay: 2G12 sandwich ELISA of gp120 from CHO cells grown with or without kifunensine; assay type: binding; conditions: for binding to the monoclonal antibody 2G12 in ELISA: gp120 produced in CHO cells in the presence of kifunensine, compared with absence
# Procedure: To investigate the role of mannosidase inhibition, by kifunensine, on the formation of the 2G12 epitope, Chinese Hamster Ovary (CHO) cells, transfected with EE6HCMV gp120GS, secreting recombinant HIV-IIIB gp120, were cultured in CB2 DMEM Base culture medium supplemented with foetal calf serum (10%), penicillin (50 U/ml) and streptomycin (50 ^1g/ml). All reagents were obtained from Gibco Ltd, Uxbridge, UK. High expression of gp120 was maintained by the addition of methionine sulphoximine (200 nM). Cells were grown in the presence and absence kifunensine (see FIG. 1A, 1B).
# Glycoproteins were immobilized on plastic protein-binding plates. For the first experiment (FIG. 1A) 2G12 (5 ug/ml) was coated onto plate, left overnight at 4° C. Plates were then blocked with Bovine Serum albumin (3% w/v) for one hour. Subsequently, supernatant from gp120IIIB expressing CHO cells (with or without kifunensine) was added for one hour, at room temperature. Plates were then washed 3 times in PBS. 2G12 (titration from 10 yg/ml) was then added. After washing 2g12 binding was determined by phosphatase-conjugated anti-IgG secondary antibody, a final wash step and then phosphatase substrate measurement (p-nitrophenylphosphate, absorbance at 405 nm).
# (§1) BSA (x) was used in these experiments as a negative control.
# 2G12 [3] = assay: Double antibody (b12/2G12) ELISA of gp120 captured with anti-gp120 antibody D7324; assay type: binding; conditions: gp120 produced with 5 μM kifunensine compared with double antibody ELISA of untreated gp120, FIG. 1 panel B
# Text: Binding of gp120, and measurement of b12/2G12 was again determined by phosphatase-conjugated anti-IgG secondary antibody.
# as §1
molecule,measurement,setting,value
O=C1N[C@@H]2[C@@H](O)[C@@H](O)[C@H](O)[C@@H](CO)N2C1=O [kifunensine],"concentration to effect mannosidase inhibition, lower than DMJ",[1],1000 fold
"CD48: self glycoprotein expressed in HEK293T cells in the presence of 5 μM kifunensine, bearing oligomannose glycans",2G12 binding by ELISA,2G12 [2],can bind to 2G12
"RPTPmu: self glycoprotein expressed in HEK293T cells in the presence of 5 μM kifunensine, bearing oligomannose glycans",2G12 binding by ELISA,2G12 [2],can bind to 2G12
kifunensine treated gp120: HIV-1IIIB gp120 glycoprotein produced in a CHO stable cell line in the presence of kifunensine,number of 2G12 molecules able to bind to a single gp120 molecule,monoclonal antibody 2G12; gp120 expressed in the presence of kifunensine,at least two
same,binding to the monoclonal antibody 2G12 in ELISA,monoclonal antibody 2G12; expressed in the presence of kifunensine,dramatically enhanced
same,binding to the monoclonal antibody 2G12 in ELISA,monoclonal antibody 2G12; produced in the presence of kifunensine,higher binding
same,additional 2G12 binding sites on each molecule of gp120,"monoclonal antibody 2G12; gp120 produced in the presence of kifunensine, two 2G12 ELISA binding assays",at least one additional 2G12 binding site
same,proportion of gp120 molecules able to simultaneously bind two or more 2G12 antibody molecules,"monoclonal antibody 2G12; sandwich ELISA, 0-5 μM kifunensine, FIG. 1 panel A",a higher proportion
same,distinct epitopes for 2G12,2G12 [3],two distinct epitopes
